Consider two compounds from US20140332384A1, “BIOMARKERS RELATED WITH A SUPRA-N[…] STATE OF SELENIUM AND DIAGNOSIS METHOD IN WHICH SAID […] IDENTIFIED” (UNIVERSIDAD DE SANTIAGO DE CHILE, priority 2011, published 2014).

Where “and” joins values, the source holds several entries; their conditions need not be identical. Identical values can stand only once.

Series [1] relates to blood plasma proteins of basic isoelectric point (bands R-2 to R-15). In words: Protein pattern of blood plasma proteins of basic isoelectric point (SDS-PAGE, densitometry) in rats fed supplemented diets. In kind it is in vivo, Wistar rats. The method, then:
The plasma was separated from the solids.
For the preparation of the pattern used, individual plasma samples were analyzed by SDS electrophoresis in polyacrylamide gel according to standard protocols. Prior to electrophoretic analysis, plasma samples were fractioned by “batch” adsorption using an ion exchange resin at pH 7.5. The adsorbed fraction was recovered and analyzed by SDS polyacrylamide gel.
A calibration curve was prepared loading five solutions of different concentrations (0, 0.4, 0.6, 0.8, and 1 mg/ml) [XAOG1]·[A2] of bovine serum albumin (as protein standard) in a polyacrylamide gel, and performing SDS-PAGE analysis under the same conditions and with the same protocol as used to analyse the plasma samples. In each lane a single major band was detected, and between the each lane different band intensity was observed due to the different concentration of the protein loaded (FIGS. 2-5). The optical density of each band was determined, as the protein concentration was known in each solution loaded in the different lanes, a linear equation was drawn which correlates the concentration with the intensity of the bands.
The concentration of protein was quantified in each band via optical densitometry and subsequent interpolation in the calibration curve. The concentration average and standard deviation for each band was calculated, considering the 8 samples of each group (controls and experimental). A comparison was made using the Student statistical t-test with a confidence interval 95% to detect significant differences in each band between the experimental and control groups.
The reference pattern for protein corresponds to the set of plasma proteins of basic isoelectric point obtained and separated by the following methodology.
Stage A: Chromatographic Fractionation of Plasma Proteins Basic Isoelectric Point.
1. Resuspend the cationic exchange resin, carefully turning the package containing the resin. When total homogenization is achieved, a certain volume of suspension is taken, between 50 and 500 μL, preferably between 50 and 200 μL, more preferably 100 μL.
2. Mix in a microcentrifuge tube around 50 to 500 μL, preferably between 50 and 200 μL, more preferably 100 μL of plasma with a 1:9 proportional amount of buffer pH 7.5, until a ionic strength equal to 0.1M, is attained, this is if you take 100 μL of plasma, 900 μL buffer must be added to achieve a 1:10 dilution, and obtain a plasma protein solution with an ionic strength equivalent to 0.09 to 0.1M of NaCl.
3. To prepare the cationic exchange resin, it is necessary to decant the resin from the original suspension volume, discarding the supernatant and washing the resin by adding an amount equivalent to the discarded supernatant buffer pH 7.5 plus 0.1M NaCl, repeating the procedure 3 times.
The protein sample obtained from stage 2 is added and mixed gently homogenizing it for 30 minutes and the resin is separated from the supernatant, the supernatant is discarded and the resin is washed with the same volume of pH 7.5 buffer plus 0.1M NaCl, three times. The adsorbed proteins are eluted by adding a suitable volume, preferably between 40 and 80 μL, more preferably 50 µL of pH 7.5 buffer over 1M NaCl, homogenized, the resin is separated from the supernatant, and finally supernatant is recuperated, which corresponds to the fraction of plasma proteins with a basic isoelectric point.
Stage B: Electrophoretic separation of plasma proteins of a basic isoelectric point.
A 12% polyacrylamide gel is prepared, according to standard protocols. A 20 μl of the sample obtained in item 3 and 5 μL of loading buffer (standard composition for SDS analysis) is subject to denaturation by heat. The denatured mixture is loaded into a lane and the electrophoretic run is performed, for a total of 160 Vh. The electrophoresis system is disassembled and the gel is recovered. […]

Series [2] shares this test system. In words: Protein pattern of blood plasma of an individual treated with dietary supplement seleno methylselenocysteine (Example 2). In kind it is in vivo. The source says:
The samples must pass through the stages A and B as described in the preparation of the pattern.
Step C: Comparing the protein pattern of the reference.
It compares the SDS-PAGE gel of the sample collected and treated with the protein pattern characteristic of a supranutritional intake of a trace element, in this case, the organic form of selenium as provided in seleno-methyl-selenocysteine, and evaluating the presence of the same bands and its relative abundance in each of the bands.
A statistical analysis (t-Student with an interval of 95%) is performed to detect significant differences between the relative abundance of the corresponding protein bands between the sample and pattern.
A sample of plasma from an individual who has undergone treatment with a nutritional dietary supplement seleno methylselenocysteine. This plasma sample was subject to the methodology described above, and the following were the results.
For comparison, Student's t-test with a confidence interval of 95% confidence was used. […] The interpretation of the results, based on the methodology would be as follows.

A short description of series [3]: Growth of rats based on their body weight. As to conditions: SMSeC (1.9 μg) diet, 10 weeks; for Final body weight: in g (unit assumed). The method, then:
As illustrated in the various embodiments and examples provided herein, the protein pattern was obtained using blood plasma from Wistar rats, bred in three groups of 8 rats, 21 days of age (4 females and 4 males) each. […] The animals had free access to deionized water and received the respective diet ad libitum. […]
The animals were kept in stainless steel cages at a controlled temperature equal to 20° C., using 12 hours day/night cycles. After the experimental period (10 weeks), blood samples were collected from each animal by cardiac punction, using standard protocols in heparin tubes. The tubes were inverted 10 times, and immediately placed in an ice bath. The tubes were centrifuged at 1300 RCF at 4° C. during 10 minutes. The plasma was separated from the solids. The supernatant was transferred to a fresh centrifuge tube and was centrifuged at 2400 RCF at 4° C. for 15 minutes. Finally, plasma samples were stored at −80° C. until they were analysed.
The growth of rats for each group was controlled.

The conditions of series [4]: cited from earlier work.
[5] abbreviates: rat blood plasma, basic isoelectric point fraction, diet with 1.9 μg SMSeC per gram, 10 weeks, average ± standard deviation, [UA] in Tables 4, 5.
The mark [6] stands for this setting: rats fed 1.9 μg seleno-methyl-selenocysteine per g of diet, Student t-test, confidence interval 95%.

As for `C[Se]C[C@H](N)C(=O)O` [SMSeC, seleno-methyl-selenocysteine], in series [1] (setting [5]), the “Relative abundance of band R-2 (H inhibitory factor complement) of the pattern” value was 28498 ± 3911.5 arbitrary units, the “Relative abundance of band R-3 (H inhibitory factor complement) of the pattern” value was determined as 20594.0 ± 4569.2 arbitrary units, the “Relative abundance of band R-4 (CRA f isophorm plasminogen) of the pattern” value turned out to be 21804.3 ± 4211.0 arbitrary units and the “Relative abundance of band R-5 (LOC366747 Protein) of the pattern” value was determined as 24582.7 ± 3620.9 arbitrary units. In addition, in series [1] (setting [5]), the “Relative abundance of band R-6 (4a component complement) of the pattern” value amounted to 29751.3 ± 2974.0 arbitrary units, the “Relative abundance of band R-7 (Albumina) of the pattern” value worked out at 37380.8 ± 2955.7 arbitrary units, the “Relative abundance of band R-8 (Da 1-24) of the pattern” value was 27224.3 ± 6466.9 arbitrary units and the “Relative abundance of band R-9 (2C chainCregion Ig Gamma) of the pattern” value was 40411.3 ± 5952.4 arbitrary units. In series [1] (setting [5]), the “Relative abundance of band R-10 (Precursor β-2-glicoprotein 1) of the pattern” value was determined as 14366.6 ± 3087.2 arbitrary units; the “Relative abundance of band R-11 (2A Region C Ig Gamma chain) of the pattern” value was 14644.4 ± 1750.0 arbitrary units and 14064.4 ± 1750.0 arbitrary units; the “Relative abundance of band R-12 (4a component complement) of the pattern” value is 51973.0 ± 4308.2 arbitrary units; the “Relative abundance of band R-13 (Heavy chain H4 inter α inhibitor) of the pattern” value is 13414.1 ± 5568.9 arbitrary units. Besides, in series [1] (setting [5]), the “Relative abundance of band R-14 (Ig Kappa precursor) of the pattern” value came out at 40436.1 ± 2906.9 arbitrary units and the “Relative abundance of band R-15 (H apolipoprotein) of the pattern” value was found to be 11309.5 ± 6939.5 arbitrary units. Besides, in series [1] (setting [6]), the “Concentration of protein in band R-10 compared with basal diet plus 0.15 μg sodium selenate per gram of diet” value is listed as “significantly higher”, the “Concentration of protein in band R-11 compared with basal diet plus 0.15 μg sodium selenate per gram of diet” value is given as “significantly higher”, the “Concentration of protein in band R-12 compared with basal diet plus 0.15 μg sodium selenate per gram of diet” value is on record as “significantly higher” and the “Concentration of protein in band R-13 compared with basal diet plus 0.15 μg sodium selenate per gram of diet” value is recorded as “significantly higher”. Besides, in series [1] (setting [6]), the “Concentration of protein in band R-15 compared with basal diet plus 0.15 μg sodium selenate per gram of diet” value is “significantly higher”. Also, in series [1] (rats fed 1.9 μg seleno-methyl-selenocysteine per gram of diet, Student t-test, confidence interval 95%), the “Concentration of protein in band R-3 compared with both control groups” value is listed as “significantly higher”. Further, in series [2], the “Relative abundance [UA] of the individual, band R-2” value was determined as 29498.0 ± 3911.5 UA; the “Relative abundance [UA] of the individual, band R-3” value stood at 22594.0 ± 4569.2 UA; the “Relative abundance [UA] of the individual, band R-4” value was found to be 21994.3 ± 4211.0 UA; the “Relative abundance [UA] of the individual, band R-5” value is listed as 25682.7 ± 3620.9 UA. For the same compound, in series [2], the “Relative abundance [UA] of the individual, band R-6” value worked out at 30751.3 ± 2974.0 UA; the “Relative abundance [UA] of the individual, band R-7” value was 37560.8 ± 2955.7 UA; the “Relative abundance [UA] of the individual, band R-8” value amounted to 28124.3 ± 6466.9 UA; the “Relative abundance [UA] of the individual, band R-9” value worked out at 41211.3 ± 5952.4 UA. In series [2], the “Relative abundance [UA] of the individual, band R-10” value was 14666.6 ± 3087.2 UA; the “Relative abundance [UA] of the individual, band R-11” value is listed as 13964.4 ± 1750.0 UA; the “Relative abundance [UA] of the individual, band R-12” value came to 52073.0 ± 4308.2 UA; the “Relative abundance [UA] of the individual, band R-13” value is on record as 15414.1 ± 5568.9 UA. In addition, in series [2], the “Relative abundance [UA] of the individual, band R-14” value was 41436.1 ± 2906.9 UA and the “Relative abundance [UA] of the individual, band R-15” value is on record as 12009.5 ± 6939.5 UA. In series [3] (females, average), the Delta body weight is recorded as 168.3 and the Final body weight is 216.7. Also, in series [3] (females, individual rats), the Delta body weight is 161.1 and 160.2 and 172.4 and 179.3; the Final body weight was 208.6 and 210.3 and 222.2 and 225.5. In series [3] (group average), this compound came in with a Delta body weight of 211.5 and a Final body weight of 260.4. Besides, in series [3] (males, average), the Delta body weight came out at 254.7 and the Final body weight turned out to be 304. Besides, in series [3] (males, individual rats), the Delta body weight was 245.1 and 256.8 and 275.8 and 241.0; the Final body weight was 296.5 and 308.7 and 322.6 and 287.9.

For the compound `[Se]` [selenium], in series [4] (adult women and adult men), the “Maximum Tolerable Intake” value is 400 µg/day. The “Selenium content of a food diet that could produce toxic effects” value in series [4] (estimated, per kg of food diet) is recorded as “more than 1 mg per kg”.
